We go through six molecules from patent publication US7154028B2, “Gibberellin 2-oxidase gene, functions and uses thereof” (National Agriculture and Bio-Oriented Research Organization, priority 2002, dated 2006).

Data set [1] deals with T1, OsGA2ox3 (Oryza sativa subsp. japonica, UniProt Q8S0S6).
T1 construct: general method only; made in house; host or cells: E. coli
Briefly: Enzyme assay with recombinant OsGA2ox3 (E. coli lysate), products identified by GC-MS. Type of data set: biochemical. The conditions noted are these: labeled substrate incubated with recombinant OsGA2ox3, full scan GC-MS. An excerpt:
A cell lysate obtained from E. coli heterologously expressing OsGA2ox3 cDNA was used for enzyme assay as previously described (Sakamoto, T. et al., Plant Physiol., 125(3): 1508–16, (2001)). […] However, GA20 was metabolized to a GA29-catabolite. Furthermore, the metabolism of GA29 to a GA29-catabolite was confirmed by metabolism experiments.

Data set [2] deals with OsGA2ox1. The conditions noted are these: cited from earlier work.
In data set [3] the test system is OsGA2ox3. Nature of the data set: RNA gel blot of OsGA2ox3 transcription in treated rice seedlings. The note with it: for transcription level of the OsGA2ox3 gene: FIG. 6B; for Transcription level of OsGA2ox3: wild-type rice seedlings, 10 μM, three days, FIG. 6A. Type of data set: in vivo, Oryza sativa. As to the method: (§1) Seeds of wild-type rice (Oryza sativa L., i.e. Nipponbare) were sterilized in 1% NaClO for one hour, and seeded on agar medium. Seedlings were grown in a growth chamber under continuous light at 30° C. To investigate the influence of GA3 and uniconazole on GA-oxidase expression, wild-type rice seedlings were transferred to a hydroponic culture system containing 10 μM GA3 or 10 μM uniconazole, and allowed to grow for three days. Ten-micrograms of RNAs were prepared from each sample, and gel blot analysis was performed as previously described (Sakamoto, T. et al., Plant Physiol., 125(3): 1508–16, 2001). The influence of uniconazole, a suppressor of GA3 and GA biosyntheses, on the transcriptional level of OsGA2ox2 and OsGA2ox3 (FIG. 6A) was examined. Transcription level of OsGA2ox3 was increased by GA3 treatment, but decreased by uniconazole (FIG. 6A) treatment. […] Transcription of the […] gene was not detected even after GA3 treatment.

The next data set relates to OsGA20ox1. Nature of the data set: RNA gel blot of GA20-oxidase gene transcription in treated rice seedlings. Type of data set: in vivo, Oryza sativa. The conditions noted are these: wild-type rice seedlings, 10 μM, three days, relative to the effect on OsGA2ox3. How it is done: as §1
Another data set concerns AtGA2ox1. The note with it: GA-deficient mutants, after treatment with GA3; cited from earlier work.
The next data set concerns AtGA2ox2. The note with it: GA-deficient mutants, after treatment with GA3; cited from earlier work.
The test system of data set [4] is OsGA2ox1. The note with it: GA3-treatment; cited from earlier work.
Another data set deals with wild type rice. Briefly: Overexpression of OsGA2ox3 cDNA in transgenic rice. Type of data set: in vivo, Oryza sativa. As to the method: As previously described (Sakamoto, T. et al., Plant Physiol., 125(3): 1508–16, 2001), the full-length OsGA2ox3 cDNA was inserted between the rice actin promoter and the polyadenylation signal of nopaline synthase (NOS) present in a hygromycin resistant binary vector pAct-Hm2. This construct was introduced into Agrobacterium tumefaciens EHA101. Agrobacterium-mediated transformation was conducted as described in the literature (WO 01/06844 A1). Transgenic plants were selected on a medium containing 50 mg/L hygromycin.
To test the activity of the OsGA2ox3 gene product in vivo, the full-length OsGA2ox3 cDNA was fused to the rice actin promoter and introduced into wild type rice by Agrobacterium-mediated gene transfer. […] Leaf blades of these plants were dark green, and they were shorter and wider than those of the wild type plants. All of these phenotypes are typical for GA-deficient dwarf rice plants.

T1 sequence (Q8S0S6 whole entry): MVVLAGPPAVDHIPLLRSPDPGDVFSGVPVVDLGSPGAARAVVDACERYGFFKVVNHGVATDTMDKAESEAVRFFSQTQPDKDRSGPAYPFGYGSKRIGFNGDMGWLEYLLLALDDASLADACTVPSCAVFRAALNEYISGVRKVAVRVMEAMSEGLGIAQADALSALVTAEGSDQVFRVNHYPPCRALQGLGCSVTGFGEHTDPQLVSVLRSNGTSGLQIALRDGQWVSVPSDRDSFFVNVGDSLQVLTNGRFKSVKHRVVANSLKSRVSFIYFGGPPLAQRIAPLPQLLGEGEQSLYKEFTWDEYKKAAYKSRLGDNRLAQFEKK

Regarding `C=C1C[C@]23C[C@@]1(O)CC[C@H]2[C@@]12CC[C@H](O)[C@@](C)(C(=O)O1)[C@H]2[C@@H]3C(=O)O` [GA1], the results for the Product result on OsGA2ox3 [1] and at OsGA2ox3 [1] (listed as [^2H2]GA1) were “GA8” and “[^2H2]GA8”, respectively. Further, the “product of metabolism by OsGA2ox1 gene product” value in the data set with OsGA2ox1 [2] is on record as “GA8”.
As to `C=C1C[C@]23C[C@@]1(O)CC[C@H]2[C@@]12C=C[C@H](O)[C@@](C)(C(=O)O1)[C@H]2[C@@H]3C(=O)O` [GA3], the “Transcription of the OsGA2ox3 gene” value with OsGA2ox3 [3] (after GA3 treatment, detection) is given as “not detected”. For the same molecule, the “transcription level of the OsGA2ox3 gene” value with OsGA2ox3 [3] (one hour after GA3 treatment) is “increased”; in the data set on OsGA2ox3 [3] (six hours after GA3 treatment), “decreased to a level that was even lower than the transcription level observed before GA3 treatment”. Further, in the data set on OsGA2ox3 [3], the “Transcription level of OsGA2ox3” value is “increased”. The “transcriptional level of the OsGA20ox1 gene” value with OsGA20ox1 was “completely reversed”. Also, the “transcription levels of AtGA2ox1” value with AtGA2ox1 was “increased”. For the same molecule, the “transcription levels of AtGA2ox2” value in the data set on AtGA2ox2 is recorded as “increased”. For the same molecule, the “transcription level of OsGA2ox1” value in the data set with OsGA2ox1 [4] is on record as “not affected”.
In the case of `C=C1C[C@]23C[C@@]1(O)CC[C@H]2[C@@]12CCC[C@@](C)(C(=O)O1)[C@H]2[C@@H]3C(=O)O` [GA20, gibberellin A20], the Product entry on OsGA2ox3 [1] is “GA29-catabolite”; on OsGA2ox3 [1] (listed as [^2H2]GA20) it was “[^2H2]GA29-catabolite”. Further, the “product of metabolism by OsGA2ox1 gene product” value with OsGA2ox1 [2] is reported as “GA29”.
Regarding `C=C1C[C@]23C[C@@]1(O)CC[C@H]2[C@@]12C[C@H](O)C[C@@](C)(C(=O)O1)[C@H]2[C@@H]3C(=O)O` [GA29, gibberellin A29], the Product result on OsGA2ox3 [1] is “GA29-catabolite”; on OsGA2ox3 [1] (listed as [^2H2]GA29), “[^2H2]GA29-catabolite”.
For `CC(C)(C)C(O)/C(=C\c1ccc(Cl)cc1)n1cncn1` (centres unmarked) [uniconazole], the “Transcription level of OsGA2ox3” value in the data set with OsGA2ox3 [3] was “decreased”. Also, the “transcriptional level of the OsGA20ox1 gene” value in the data set on OsGA20ox1 was “completely reversed”.

B1: OsGA2ox3 cDNA: full-length rice GA2-oxidase cDNA (SEQ ID NO: 3) fused to the rice actin promoter, introduced into rice (nucleic acid, listed as Oryza sativa)
DNA: ATGGTGGTTCTCGCTGGCCCGCCCGCCGTCGATCACATCCCGCTGCTGAGGTCGCCGGACCCCGGCGACGTCTTCTCCGGCGTGCCGGTCGTCGACCTCGGCAGCCCCGGCGCGGCGAGGGCCGTGGTGGACGCCTGCGAGCGGTACGGGTTCTTCAAGGTCGTCAACCACGGCGTGGCCACGGACACGATGGACAAGGCCGAGTCGGAGGCCGTCAGGTTCTTCTCCCAGACGCAGCCCGACAAGGACCGCTCCGGCCCGGCCTACCCGTTCGGGTACGGCAGCAAGCGGATCGGGTTCAATGGCGACATGGGGTGGCTCGAGTACCTCCTCCTCGCCCTCGACGACGCGTCGCTCGCCGACGCCTGCACCGTCCCGTCCTGCGCGGTCTTCCGGGCCGCTCTGAACGAGTACATCTCGGGGGTGCGGAAGGTGGCGGTGCGGGTGATGGAGGCGATGTCGGAGGGGCTGGGCATTGCGCAGGCGGACGCGCTGAGCGCGCTGGTGACGGCGGAAGGGAGCGACCAGGTGTTCCGCGTGAACCACTACCCGCCGTGCCGCGCGCTGCAGGGGCTCGGCTGCAGCGTCACCGGCTTCGGCGAGCACACCGACCCGCAGCTCGTCTCCGTGCTCCGCTCAAACGGCACGTCCGGCCTGCAGATCGCGCTCCGCGACGGCCAGTGGGTGTCCGTGCCCTCCGACCGCGACTCCTTCTTCGTCAACGTCGGCGACTCGTTGCAGGTTCTGACCAATGGGAGGTTCAAGAGCGTGAAGCACAGGGTGGTGGCCAACAGCCTAAAGTCTAGGGTTTCCTTCATCTACTTTGGAGGGCCACCGTTAGCACAGAGGATTGCACCATTGCCACAGCTGCTGGGGGAGGGAGAGCAGAGCCTGTACAAGGAGTTCACATGGGATGAGTACAAGAAGGCTGCCTACAAATCAAGGCTTGGAGACAACAGGCTGGCCCAGTTTGAGAAGAAGTAG
modifications: rice actin promoter fused, not cited; CDS (1)..(984)
With B1, the “phenotype of transgenic plants” value with wild type rice (rice actin promoter, 27 independent lines, FIG. 5) is given as “extreme dwarf phenotypes”. Also, the “flowering of transgenic plants” value in the data set on wild type rice (wild type flowered about three months after seeding) is given as “did not flower even after four months”.
